Test results from patent publication US12303588B2, “Composition containing Cirsium japonicum extract as active ingredient for stimulating melanogenesis” (BIOSPECTRUM, INC., priority 2017, dated 2025).

Tested on: human skin
Assay: Cumulative skin irritation patch test (safety to the human skin)
Assay type: in vivo
Details: 30 adults; for Number of subjects showing response ±: 1st week
Experimental: In order to identify as to whether the Cirsium japonicum extract is safe or not, a test for identifying the safety to the human skin was performed. For this, a cumulative skin irritation was carried out. A nutritious cream containing 0.1%, 0.5% and 1% of Cirsium japonicum extracts of Example 1, respectively, was prepared. Specifically, purified water, triethanolamine, and propylene glycol were heated and dissolved at a temperature of 70° C. (aqueous phase). Beeswax, liquid paraffin, oily ingredients, emulsifiers and preservatives were heated and dissolved at a temperature of 70° C. (oil phase). The oil phase was added to the aqueous phase to prepare an emulsion. After emulsification was completed, the solution was cooled to 45° C., and Cirsium japonicum extracts were added 0.1%, 0.5% and 1% respectively, dispersed and then cooled to 30° C. As the content of the Cirsium japonicum extract was increased to 0.1%, 0.5% and 1%, the nutritional cream was prepared by reducing the content of the liquid paraffin to 9.91%, 9.51% and 9.01%, respectively. The nourishing cream prepared as described above was applied as a patch to areas of humerus of 30 adults for accumulated 24 hours on alternate day in total 9 times to test as to whether the Cirsium japonicum extract stimulates the skin. The patch used Finn chamber ([…]) and the patch was practiced after dropping with […] of the skin external preparations prepared from the above, respectively. The degree of the reaction represented on the skin in every time was scored by using the below experimental formula 1. Mean reaction degree=[{(reaction index×reaction degree)/(total number of the subject×the highest score (four point))}×100]/times of the test (9times) [Experimental Formula 1] In regard to the response degree, 1 point was provided for ±, 2 points for +, and 4 points for ++. When the mean reaction degree is less than 3, it is considered as being the safe composition.

CC(C)=CCC/C(C)=C/CC/C(C)=C/CC/C=C(\C)CC/C=C(\C)CCC=C(C)C [Control group (Squalene), Squalene]
Number of subjects showing response ± (1st application): 1 | Number of subjects showing response ± (2nd application): 0 | Average response degree (24 h patch on alternate days, 9 times, less than 3 = safe): 0.09
